Values after ≈ are worked out from the molar mass of the structure shown. Where two headings read alike, the source gives them in different places.
How the values were obtained:
[1] = test system: Cryptosporidium parvum (CP); test: Cell culture model of Cryptosporidium parvum infection in HCT-8 cells, real-time qRT-PCR; assay type: cell-based; conditions: Cryptosporidium parvum; for inhibition at 0.25 µM: HCT-8, @0.25 uM
Method in brief: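 HCT-8 monolayers were infected with C. parvum Iowa oocysts (1.5×10^4/well) for 3 h, then compounds were added after medium exchange and cells were incubated 41 h more (44 h total, 37 °C). Parasite Cp18S rRNA was measured by one-step SYBR qRT-PCR of lysates, normalized to host Hs18S, and % inhibition at the stated µM was derived from a standard curve.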

[2] = MCLint in vitro intrinsic clearance, mouse (MLM); assay type: in vitro ADME
[3] = target: Human ether-a-go-go-related gene (hERG) (Homo sapiens, UniProt Q12809); test: hERG test (potential cardiotoxicity); assay type: biochemical; conditions: read-out: hERG (Abbvie)
Chain of Human ether-a-go-go-related gene (hERG) (Q12809 whole entry): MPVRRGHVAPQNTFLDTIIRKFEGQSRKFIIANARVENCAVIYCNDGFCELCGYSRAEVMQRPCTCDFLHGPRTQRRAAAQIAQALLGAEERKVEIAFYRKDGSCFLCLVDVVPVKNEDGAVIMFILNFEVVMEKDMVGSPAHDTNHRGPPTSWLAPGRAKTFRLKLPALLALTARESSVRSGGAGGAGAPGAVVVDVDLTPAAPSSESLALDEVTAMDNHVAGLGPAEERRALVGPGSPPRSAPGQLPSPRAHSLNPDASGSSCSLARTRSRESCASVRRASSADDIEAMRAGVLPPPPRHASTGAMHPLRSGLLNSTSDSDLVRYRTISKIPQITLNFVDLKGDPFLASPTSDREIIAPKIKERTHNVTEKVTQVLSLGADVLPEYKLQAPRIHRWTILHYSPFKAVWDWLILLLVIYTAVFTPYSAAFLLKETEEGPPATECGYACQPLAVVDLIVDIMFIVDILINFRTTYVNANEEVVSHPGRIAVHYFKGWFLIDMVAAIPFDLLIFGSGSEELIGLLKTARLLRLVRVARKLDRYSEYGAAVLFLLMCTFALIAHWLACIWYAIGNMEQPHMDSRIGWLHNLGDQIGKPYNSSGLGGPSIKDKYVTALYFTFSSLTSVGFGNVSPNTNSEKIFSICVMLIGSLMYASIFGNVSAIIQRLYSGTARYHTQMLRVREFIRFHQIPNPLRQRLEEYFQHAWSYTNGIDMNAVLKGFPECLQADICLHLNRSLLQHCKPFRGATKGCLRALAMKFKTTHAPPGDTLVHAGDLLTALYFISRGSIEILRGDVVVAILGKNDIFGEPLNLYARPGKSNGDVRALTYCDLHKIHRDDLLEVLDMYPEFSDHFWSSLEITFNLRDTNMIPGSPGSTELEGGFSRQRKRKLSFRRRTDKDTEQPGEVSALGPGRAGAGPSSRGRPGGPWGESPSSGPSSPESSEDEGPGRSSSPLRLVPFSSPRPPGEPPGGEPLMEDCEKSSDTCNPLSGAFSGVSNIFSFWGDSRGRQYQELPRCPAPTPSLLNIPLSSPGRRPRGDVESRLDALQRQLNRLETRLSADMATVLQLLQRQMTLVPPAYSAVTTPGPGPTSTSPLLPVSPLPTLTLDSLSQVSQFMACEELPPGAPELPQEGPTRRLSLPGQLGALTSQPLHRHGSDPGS

[4] = HCLint in vitro intrinsic clearance, human (HLM); assay type: in vitro ADME
S. cerevisiae = test: in vitro; conditions: Saccharomyces cerevisiae
human fibroblast = test: in vitro
Cryptosporidium parvum = conditions: mouse, in vivo
Description: The anticryptosporidial activity of the in vitro inhibitors was assessed in the IL-12 knockout mouse model that resembles the acute human disease (Ehigiator H N, Romagnoli P, Borgelt K, Fernandez M, McNair N, Secor W E, Mead J R. 2005. Mucosal cytokine and antigen-specific responses to Cryptosporidium parvum in IL-12p40 KO mice. Parasite Immunol. 27: 17-28; Campbell L D, Stewart J N, Mead J R. 2002. Susceptibility to Cryptosporidium parvum infections in cytokine- and chemokine-receptor knockout mice. J. Parasitol. 88:1014-1016). The protocol was approved by the Institutional Animal Care and Use Committees of Emory University, the AtlantaVAMedical Center, and Brandeis University. Mice (6 to 10 per group) were inoculated with 1,000 purified CP oocysts (Iowa isolate, from cattle). Treatment by gavage began 4 h postinfection with either vehicle (5% dimethyl sulfoxide (DMSO) in canola oil), 50-100 mg/kg compound, or 2,000 mg/kg paromomycin. Compounds were given for 7 days, and mice were sacrificed on day 8 (peak infection). Parasite load was quantified by fluorescence-activated cell sorting (FACS) assays for the presence of the oocysts in the feces at days 0, 4, and 7. Fecal pellets from individual mice were routinely collected daily and homogenized in adjusted volumes of 2.5% potassium dichromate. Samples were processed individually. Aliquots (200 ul) of vortexed samples were processed over microscale sucrose gradients as previously described (Arrowood M J, Hurd M R, Mead J R. 1995. A new method for evaluating experimental cryptosporidial parasite loads using immunofluorescent flowcytometry. J. Parasitol. 81:404-409). The oocyst-containing fraction was collected, washed, and treated with monoclonal antibody (OW5O-FITC) for 20 min. Samples were adjusted to 600 ul, and a portion (100 ul) was assayed with a 102-s sampling interval using logical gating of forward/side scatter and OW5O-FITC fluorescence signal on a Becton, Dickinson FACScan flow cytometer. Flow cytometry data were evaluated by analysis of variance (KaleidaGraph (Synergy Software, Reading Pa.); Microsoft Excel (Microsoft Corporation, Redmond, Wash.)).
NZ-366 (50 mg/kg) and NZ-369 (100 mg/kg) were administered via gavage in a single daily dose to IL-12 knockout mice that were infected with 1,000 CP oocysts. Additional control groups included those treated with single daily doses of vehicle, and paromomycin (Prm) (2,000 mg/kg), by oral gavage.

[5] = 44 h, CP in HCT-8 cells, 44 h infection, 50% reduction of parasite growth vs control, NA: not active, read-out: MIC50

| Structure (SMILES) | MIC50 [1, 5] | concentrations at which not toxic, S. cerevisiae cytotoxicity testing (S. cerevisiae) | concentrations at which not toxic, human fibroblast cytotoxicity testing (human fibroblast; human) | further results |
| --- | --- | --- | --- | --- |
| CC(C(=O)NC1COC1)c1ccc(Oc2nc3ccc(Cl)cc3s2)cc1 (stereo not drawn) [NZ-543, 2-{4-[(6-chloro-1,3-benzothiazol-2-yl)oxy]phenyl}-N-(oxetan-3-yl)propanamide] | 45 nM (≈ 0.0175 µg/mL) | – | – | IC50 (in vitro; Saccharomyces cerevisiae): > 100 µM; IC50 (in vitro; human): > 100 µM; MIC50 ([1]; read-out: MIC50 (nM) (CP)): 45 nM (≈ 0.0175 µg/mL); MCLint (mL/min/g liver), MLM [2]: MLM = 2 mL/min/g liver; IC50 [3]: 24 µM; HCLint (mL/min/g liver), HLM [4]: HLM = 1.2 mL/min/g liver |
| CC(C(=O)N1CCNCC1)c1ccc(Oc2nc3ccc(Cl)cc3s2)cc1 (stereo not drawn) [NZ-364, 2-{4-[(6-chloro-1,3-benzothiazol-2-yl)oxy]phenyl}-1-(piperazin-1-yl)propan-1-one] | 120 nM (≈ 0.0482 µg/mL) | ≥ 100 µM | ≥ 100 µM | effectiveness in the same type of test (IL-12 knockout mouse model) (Cryptosporidium parvum): effective |
| CC(C(=O)NC1CC1)c1ccc(Oc2nc3ccc(Cl)cc3s2)cc1 (stereo not drawn) [NZ-538, 2-{4-[(6-chloro-1,3-benzothiazol-2-yl)oxy]phenyl}-N-cyclopropylpropanamide] | 54 nM (≈ 0.0201 µg/mL) | – | – | IC50 (in vitro; Saccharomyces cerevisiae): > 100 µM; IC50 (in vitro; human): > 100 µM; MIC50 ([1]; read-out: MIC50 (nM) (CP)): 54 nM (≈ 0.0201 µg/mL); MCLint (mL/min/g liver), MLM [2]: MLM = 3.9 mL/min/g liver; IC50 [3]: 7.3 µM; HCLint (mL/min/g liver), HLM [4]: HLM = 0.7 mL/min/g liver |
| CC(C(=O)NCC(O)CO)c1ccc(Oc2nc3ccc(Cl)cc3s2)cc1 (stereo not drawn) [NZ-372, 2-{4-[(6-chloro-1,3-benzothiazol-2-yl)oxy]phenyl}-N-(2,3-dihydroxypropyl)propanamide] | 85 nM (≈ 0.0346 µg/mL) | ≥ 100 µM | – | effectiveness in the same type of test (IL-12 knockout mouse model) (Cryptosporidium parvum): effective |
| CC(C(=O)NCCS(C)(=O)=O)c1ccc(Oc2nc3ccc(Cl)cc3s2)cc1 (stereo not drawn) [NZ-578, 2-{4-[(6-chloro-1,3-benzothiazol-2-yl)oxy]phenyl}-N-(2-methanesulfonylethyl)propanamide] | 18 nM (≈ 0.0079 µg/mL) | – | – | IC50 (in vitro; human): > 100 µM; inhibition at 31 µM ([1]; HCT-8, @31 uM, read-out: % (inhibition of CP) printed in the MIC50 (nM) (CP) column): 83%; MIC50 ([1]; read-out: MIC50 (nM) (CP)): < 30 nM |
| COCCNC(=O)C(C)c1ccc(Oc2nc3ccc(Cl)cc3s2)cc1 (stereo not drawn) [NZ-541, 2-{4-[(6-chloro-1,3-benzothiazol-2-yl)oxy]phenyl]-N-(2-methoxyethyl)propanamide] | 81 nM (≈ 0.0317 µg/mL) | – | – | IC50 (in vitro; Saccharomyces cerevisiae): > 100 µM; IC50 (in vitro; human): > 100 µM; MIC50 ([1]; read-out: MIC50 (nM) (CP)): 81 nM (≈ 0.0317 µg/mL); MCLint (mL/min/g liver), MLM [2]: MLM = 6.3 mL/min/g liver; IC50 [3]: 27 µM; HCLint (mL/min/g liver), HLM [4]: HLM = 2.0 mL/min/g liver |
| CN1CCN(C(=O)Nc2ccc(Oc3nc4ccc(Cl)cc4s3)cc2)CC1 [NZ-475, N-{4-[(6-chloro-1,3-benzothiazol-2-yl)oxy]phenyl}-4-methylpiperazine-1-carboxamide] | 60 nM (≈ 0.0242 µg/mL) | ≥ 100 µM | ≥ 100 µM | effectiveness in the same type of test (IL-12 knockout mouse model) (Cryptosporidium parvum): effective |
| CNC(=O)Cc1c(F)cc(Oc2cnc3cc(Cl)ccc3n2)cc1F [NZ-460, 2-{4-[(6-chloroquinoxalin-2-yl)oxy]-2,6-difluorophenyl}-N-methylacetamide] | – | ≥ 100 µM | ≥ 100 µM | inhibition at 5 µM ([1]; HCT-8, @5 uM): 19% |
| CNC(=O)Cc1c(F)cc(Oc2nc3ccc(F)cc3s2)cc1F [NZ-433, 2-{2,6-difluoro-4-[(6-fluoro-1,3-benzothiazol-2-yl)oxy]phenyl}-N-methylacetamide] | ~2000 nM (≈ 0.705 µg/mL) | ≥ 100 µM | ≥ 100 µM | – |
| CNC(=O)C(C)c1ccc(Oc2nc3cc(F)c(F)cc3s2)cc1 (stereo not drawn) [NZ-387, 2-{4-[(5,6-difluoro-1,3-benzothiazol-2-yl)oxy]phenyl}-N-methylpropanamide] | ~440 nM (≈ 0.153 µg/mL) | ≥ 100 µM | ≥ 100 µM | – |
| CNC(=O)Cc1ccc(Oc2nc3cc(F)c(F)cc3s2)cc1F [NZ-411, 2-{4-[(5,6-difluoro-1,3-benzothiazol-2-yl)oxy]-2-fluorophenyl}-N-methylacetamide] | – | ≥ 100 µM | – | concentrations at which not toxic, human fibroblast cytotoxicity testing (human fibroblast): ≥ 100 µM; inhibition at 10 µM ([1]; HCT-8, read-out: % inh @ (μM)): 75.7% |
| NC(=O)Cc1ccc(Oc2nc3ccc(Cl)cc3s2)cc1F [NZ-500, 2-{4-[(6-chloro-1,3-benzothiazol-2-yl)oxy]-2-fluorophenyl}acetamide] | ~250 nM (≈ 0.0842 µg/mL) | ≥ 100 µM | ≥ 100 µM | – |
| CC(C(=O)N1CCNCC1)c1ccc(Oc2nc3cc(F)c(F)cc3s2)cc1 (stereo not drawn) [NZ-489, 2-{4-[(5,6-difluoro-1,3-benzothiazol-2-yl)oxy]phenyl}-1-(piperazin-1-yl)propan-1-one] | < 250 nM | ≥ 100 µM | ≥ 100 µM | inhibition at 0.25 µM [1]: 68% |
| CC(C(=O)N1CCN(C)CC1)c1ccc(Oc2nc3cc(F)c(F)cc3s2)cc1 (stereo not drawn) [NZ-465, 2-{4-[(5,6-difluoro-1,3-benzothiazol-2-yl)oxy]phenyl}-1-(4-methylpiperazin-1-yl)propan-1-one] | < 250 nM | ≥ 100 µM | ≥ 100 µM | inhibition at 0.25 µM [1]: 68% |
| CC(C)NC(=O)Nc1ccc(Oc2nc3ccc(Cl)cc3s2)cc1 [NZ-331, 1-{4-[(6-chloro-1,3-benzothiazol-2-yl)oxy]phenyl}-3-(propan-2-yl)urea] | – | ≥ 100 µM | – | concentrations at which not toxic, human fibroblast cytotoxicity testing (human fibroblast): ≥ 100 µM; inhibition at 0.05 µM ([1]; HCT-8, read-out: % inh @ (μM)): 36% |
| CC(C(=O)N1CCN(C)CC1)c1ccc(Oc2nc3ccc(F)cc3s2)cc1 (stereo not drawn) [NZ-466, 2-{4-[(6-fluoro-1,3-benzothiazol-2-yl)oxy]phenyl}-1-(4-methylpiperazin-1-yl)propan-1-one] | 50 to 100 nM (≈ 0.02 to 0.0399 µg/mL) | ≥ 100 µM | ≥ 100 µM | – |
| O=C(Cc1ccc(Oc2nc3ccc(F)cc3s2)cc1F)NC1CC1 [NZ-446, N-cyclopropyl-2-{2-fluoro-4-[(6-fluoro-1,3-benzothiazol-2-yl)oxy]phenyl}acetamide] | 1000 to 4000 nM (≈ 0.36 to 1.44 µg/mL) | ≥ 100 µM | ≥ 100 µM | – |
| O=C(Cc1ccc(Oc2nc3ccc(F)cc3s2)cc1)N1CCCC1 [NZ-490, 2-{4-[(6-fluoro-1,3-benzothiazol-2-yl)oxy]phenyl}-1-(pyrrolidin-1-yl)ethan-1-one] | ~250 nM (≈ 0.0891 µg/mL) | ≥ 100 µM | ≥ 100 µM | inhibition at 0.25 µM [1]: 60% |
| CN1CCN(C(=O)Cc2ccc(Oc3nc4cc(F)c(F)cc4s3)cc2)CC1 [NZ-409, 2-{4-[(5,6-difluoro-1,3-benzothiazol-2-yl)oxy]phenyl}-1-(4-methylpiperazin-1-yl)ethan-1-one] | ~440 nM (≈ 0.178 µg/mL) | ≥ 100 µM | ≥ 100 µM | – |
| NC(=O)Cc1ccc(Oc2nc3ccc(Cl)cc3s2)cc1 [NZ-505, 2-{4-[(6-chloro-1,3-benzothiazol-2-yl)oxy]phenyl}acetamide] | ~250 nM (≈ 0.0797 µg/mL) | ≥ 100 µM | ≥ 100 µM | – |

Reference: patent US11083717B2, “Compositions and methods for drug sensitization of parasites” (The Texas A&M University System, priority 2015, dated 2021)
